Key:
[1] = target: interaction between PD-1 and PD-L1 expressed on cell surfaces (Homo sapiens (Human), UniProt Q9NZQ7); assay: Jurkat reporter gene cellular assay (Jurkat/NF-κB-luc/PD1 cells cocultured with Raji-PD-L1 cells, OKT-3 stimulation); type: cell-based; conditions: NF-κB-luc reporter activation fold, 6 hrs; read-out: Cell Activity EC50
How it was run: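 EC50 comes from non-linear regression of activation fold (compound reading over DMSO reading) against concentration. Read-out was luciferase signal 6 h after OKT-3-stimulated coculture of PD-1/NF-κB-luc Jurkat cells with PD-L1-expressing Raji cells, 5*10^4 cells each per well.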

[2] = target: interaction between PD-1 and PD-L1 (Homo sapiens (Human), UniProt Q9NZQ7); assay: PD1-PDL1 HTRF binding activity test (Cisbio PD-1/PD-L1 binding assay kit); conditions: read-out: PD1-PDL1 HTRF Binding Activity IC50
Sequence of interaction between PD-1 and PD-L1 (Q9NZQ7 19-238): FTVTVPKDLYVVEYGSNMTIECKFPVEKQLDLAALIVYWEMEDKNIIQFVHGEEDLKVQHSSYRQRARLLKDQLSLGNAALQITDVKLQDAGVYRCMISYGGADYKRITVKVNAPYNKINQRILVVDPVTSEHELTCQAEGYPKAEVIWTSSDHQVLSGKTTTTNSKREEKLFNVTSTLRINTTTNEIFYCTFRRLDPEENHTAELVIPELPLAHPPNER

Sequence of interaction between PD-1 and PD-L1 expressed on cell surfaces (Q9NZQ7 19-290): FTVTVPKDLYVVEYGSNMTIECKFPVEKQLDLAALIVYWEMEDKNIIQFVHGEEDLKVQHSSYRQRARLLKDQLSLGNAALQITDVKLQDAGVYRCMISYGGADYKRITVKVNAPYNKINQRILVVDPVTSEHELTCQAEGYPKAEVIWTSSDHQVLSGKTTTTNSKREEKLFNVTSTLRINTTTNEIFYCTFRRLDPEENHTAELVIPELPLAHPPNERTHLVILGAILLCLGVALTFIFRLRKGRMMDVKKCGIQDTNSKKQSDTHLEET

| EC50 [1] | IC50 [2] | SMILES |
| --- | --- | --- |
| 1340 nM | 16.6 nM | CCOC(=O)CNCc1cnc(C(=O)Nc2cccc(-c3cccc(NC(=O)c4cc(C5CC5)c(CNCC(=O)OCC)cn4)c3C)c2C)cc1C1CC1 [Example 121, diethyl 2,2′-((((((2,2′-dimethyl-[1,1′-biphenyl]-3,3′-diyl)bis(azanediyl))bis(carbonyl))bis(4-cyclopropylpyridine-6,3-diyl))bis(methylene))bis(azanediyl)) diacetate] |
| 19 nM | 1.14 nM | Cc1c(NC(=O)c2cc(C3CC3)c(CNCC(=O)O)cn2)cccc1-c1cccc(NC(=O)c2cc(C3CC3)c(CNCC(=O)O)cn2)c1C [Example 122, 2,2′-((((((2,2′-dimethyl-[1,1′-biphenyl]-3,3′-diyl)bis(azanediyl))bis(carbonyl))bis(4-cyclopropylpyridine-6,3-diyl))bis(methylene))bis(azanediyl)) diacetic acid] |
| 2410 nM | 22 nM | CCOC(=O)[C@H](C)NCc1cnc(C(=O)Nc2cccc(-c3cccc(NC(=O)c4cc(C5CC5)c(CN[C@@H](C)C(=O)OCC)cn4)c3C)c2C)cc1C1CC1 [Example 123] |
| 14.7 nM | 1.09 nM | Cc1c(NC(=O)c2cc(C3CC3)c(CN[C@@H](C)C(=O)O)cn2)cccc1-c1cccc(NC(=O)c2cc(C3CC3)c(CN[C@@H](C)C(=O)O)cn2)c1C [Example 124, (2S,2S)-2,2′-((((((2,2′-dimethyl-[1,-1′-biphenyl]-3,3′-diyl)bis(azanediyl))bis (carbonyl))bis(4-cyclopropylpyridine-6,3-diyl))bis(methylene))bis(azanediyl)) dipropionic acid] |
| > 10000 nM | > 2000 nM | CCOC(=O)[C@@H](NCc1cnc(C(=O)Nc2cccc(-c3cccc(NC(=O)c4cc(C5CC5)c(CN[C@H](C(=O)OCC)C(C)C)cn4)c3C)c2C)cc1C1CC1)C(C)C [Example 125, diethyl 2,2′-((((((2,2′-dimethyl-[1,1′-biphenyl]-3,3′-diyl)bis(azanediyl))bis(carbonyl))bis(4-cyclopropylpyridine-6,3-diyl))bis(methylene))bis(azanediyl)) (2S,2′S)-bis(3-methylbutanoate)] |
| 64 nM | 1.11 nM | Cc1c(NC(=O)c2cc(C3CC3)c(CN[C@H](C(=O)O)C(C)C)cn2)cccc1-c1cccc(NC(=O)c2cc(C3CC3)c(CN[C@H](C(=O)O)C(C)C)cn2)c1C [Example 126, (2S,2S)-2,2-((((((2,2′-dimethyl-[1,1′-biphenyl]-3,3′-diyl)bis(azanediyl))bis (carbonyl))bis(4-cyclopropylpyridine-6,3-diyl))bis(methylene))bis(azanediyl)) bis(3-methylbutanoic acid)] |
| > 10000 nM | 113 nM | CCOC(=O)C1(NCc2cnc(C(=O)Nc3cccc(-c4cccc(NC(=O)c5cc(C6CC6)c(CNC6(C(=O)OCC)CC6)cn5)c4C)c3C)cc2C2CC2)CC1 [Example 127, diethyl 1,1′-((((((2,2′-dimethyl-[1,1′-biphenyl]-3,3′-diyl)bis(azanediyl))bis(carbonyl))bis(4-cyclopropylpyridine-6,3-diyl))bis(methylene))bis(azanediyl)) bis(cyclopropane-l-carboxylate)] |
| 77.8 nM | 1.32 nM | Cc1c(NC(=O)c2cc(C3CC3)c(CNC3(C(=O)O)CC3)cn2)cccc1-c1cccc(NC(=O)c2cc(C3CC3)c(CNC3(C(=O)O)CC3)cn2)c1C [Example 128, 1,1′-((((((2,2′-dimethyl-[1,1′-biphenyl]-3,3-diyl)bis(azanediyl))bis(carbonyl))bis (4-cyclopropylpyridine-6,3-diyl))bis (methylene))bis(azanediyl))bis (cyclopropane-1-carboxylic acid)] |
| > 10000 nM | 102 nM | CCOC(=O)CN(C)Cc1cnc(C(=O)Nc2cccc(-c3cccc(NC(=O)c4cc(C5CC5)c(CN(C)CC(=O)OCC)cn4)c3C)c2C)cc1C1CC1 [Example 129] |
| 600 nM | 0.99 nM | Cc1c(NC(=O)c2cc(C3CC3)c(CN(C)CC(=O)O)cn2)cccc1-c1cccc(NC(=O)c2cc(C3CC3)c(CN(C)CC(=O)O)cn2)c1C [Example 130, 2,2′-((((((2,2′-dimethyl-[1,1′-biphenyl]-3,3′-diyl)bis(azanediyl))bis (carbonyl))bis(4-cyclopropylpyridine-6,3-diyl))bis(methylene))bis (methylazanediyl))diacetic acid] |
| 2580 nM | 21.8 nM | COC(=O)[C@@H]1CCN(Cc2cnc(C(=O)Nc3cccc(-c4cccc(NC(=O)c5cc(C6CC6)c(CN6CC[C@@H](C(=O)OC)C6)cn5)c4C)c3C)cc2C2CC2)C1 [Example 131, dimethyl 1,1′-(((((2,2′-dimethyl-[1,1′-biphenyl]-3,3′-diyl)bis(azanediyl))bis (carbonyl))bis(4-cyclopropylpyridine-6,3-diyl))bis(methylene))(3R,3′R)-bis (pyrrolidine-3-carboxylate)] |
| 23.1 nM | 0.2 nM | Cc1c(NC(=O)c2cc(C3CC3)c(CN3CC[C@@H](C(=O)O)C3)cn2)cccc1-c1cccc(NC(=O)c2cc(C3CC3)c(CN3CC[C@@H](C(=O)O)C3)cn2)c1C [Example 132, (3R,3′R)-1,1′-(((((2,2′-dimethyl-[1,1′-biphenyl]-3,3′-diyl)bis(azanediyl))bis (carbonyl))bis(4-cyclopropylpyridine-6,3-diyl))bis(methylene))bis(pyrrolidine-3-carboxylic acid)] |
| 1900 nM | 11.8 nM | COC(=O)[C@H]1CCN(Cc2cnc(C(=O)Nc3cccc(-c4cccc(NC(=O)c5cc(C6CC6)c(CN6CC[C@H](C(=O)OC)C6)cn5)c4C)c3C)cc2C2CC2)C1 [Example 133, dimethyl 1,1′-(((((2,2′-dimethyl-[1,1′-biphenyl]-3,3′-diyl)bis(azanediyl))bis (carbonyl))bis(4-cyclopropylpyridine-6,3-diyl))bis(methylene))(3S,3′S)-bis (pyrrolidine-3-carboxylate)] |
| 21 nM | 0.82 nM | Cc1c(NC(=O)c2cc(C3CC3)c(CN3CC[C@H](C(=O)O)C3)cn2)cccc1-c1cccc(NC(=O)c2cc(C3CC3)c(CN3CC[C@H](C(=O)O)C3)cn2)c1C [Example 134, (3S,3′S)-1,1′-(((((2,2′-dimethyl-[1,1′-biphenyl]-3,3′-diyl)bis(azanediyl))bis (carbonyl))bis(4-cyclopropylpyridine-6,3-diyl))bis(methylene))bis(pyrrolidine-3-carboxylic acid)] |
| 27.4 nM | 0.32 nM | Cc1c(NC(=O)c2cc(C3CC3)c(CNC[C@@H](O)CC(=O)O)cn2)cccc1-c1cccc(NC(=O)c2cc(C3CC3)c(CNC[C@@H](O)CC(=O)O)cn2)c1C [Example 136, (3S,3′S)-4,4′-((((((2,2′-dimethyl-[1,1′-biphenyl]-3,3′-diyl)bis(azanediyl))bis (carbonyl))bis(4-cyclopropylpyridine-6,3-diyl))bis(methylene))bis(azanediyl)) bis(3-hydroxybutanoic acid)] |
| 108 nM | 2.07 nM | Cc1c(NC(=O)c2cc(C3CC3)c(CNC[C@@H]3CCC(=O)N3)cn2)cccc1-c1cccc(NC(=O)c2cc(C3CC3)c(CNC[C@@H]3CCC(=O)N3)cn2)c1C [Example 137, N,N′-(2,2′-dimethyl-[1,1′-biplienyl]-3,3′-diyl)bis(4-cyclopropyl-5-(((((S)-5-oxopyrrolidin-2-yl)methyl)amino)methyl)picolinamide)] |
| 581 nM | 5.03 nM | Cc1c(NC(=O)c2cc(C3CC3)c(CNCCF)cn2)cccc1-c1cccc(NC(=O)c2cc(C3CC3)c(CNCCF)cn2)c1C [Example 138, N,N′-(2,2′-dimethyl-[1,1′-biphenyl]-3,3′-diyl)bis(4-cyclopropyl-5-(((2-fluoroethyl)amino)methyl)picolinamide)] |
| > 10000 nM | 120 nM | Cc1c(NC(=O)c2cc(C3CC3)c(CNCC(F)F)cn2)cccc1-c1cccc(NC(=O)c2cc(C3CC3)c(CNCC(F)F)cn2)c1C [Example 139, N,N′-(2,2′-dimethyl-[1,1′-biphenyl]-3,3′-diyl)bis(4-cyclopropyl-5-(((2,2-difluoroethyl)amino)methyl)picolinamide)] |
| 2710 nM | 15.1 nM | Cc1c(NC(=O)c2cc(C3CC3)c(CNCC(F)(F)F)cn2)cccc1-c1cccc(NC(=O)c2cc(C3CC3)c(CNCC(F)(F)F)cn2)c1C [Example 140, N,N′-(2,2′-dimethyl-[1,1′-biphenyl]-3,3′-diyl)bis(4-cyclopropyl-5-(((2,2,2-trifluoroethyl)amino)methyl)picolinamide)] |
| > 10000 nM | 2.4 nM | Cc1cc(C(=O)Nc2cccc(-c3ccccc3)c2C)ncc1CNCCO [Positive compound, reference compound] |

Reference: patent publication US11459339B2, “Biaryl derivative, preparation method thereof and pharmaceutical application thereof” (Abbisko Therapeutics Co., Ltd., priority 2018, dated 2022)
